Source: US9795626B2, “Cancer therapy using miRNAs” (THE UNIVERSITY OF WESTERN AUSTRALIA, priority 2012, dated 2017)
Values joined by “and” are separate entries in the source; they are usually repeats but may differ in a detail not shown here. Equal entries are not always repeated.

Assays:
[1] = tested on: melanoma cell lines (SK-MEL-28, WM266-4, MM96L and A2058); experiment: Drug sensitivity assay (cell viability after 4 days of drug); format: cell-based; settings: range over the melanoma cell lines
[2] = tested on: SK-MEL-28 melanoma cells; experiment: Cell viability assay (MTS) after miRNA transfection, with or without drug; Bliss synergy analysis; settings: for EObs/EBliss: >1 = synergistic; for EBliss: fractional inhibition expected if exactly additive; for EObs: observed fractional inhibition of the combination
Protocol: (§5) Cells were seeded in 96-well plates at a density of 2.5×10^3 cells per well and transfected with miRNA precursor molecules as above. Cell viability was measured 5 days after transfection using CellTitre 96 Aqueous One Solution Cell Proliferation Assay Kit (MTS assay) and a FLUOstar OPTIMA microplate reader. For synergy analysis between drugs and miR-7-5p, cells were plated as above and drug or DMSO was added 3 days after transfection with miR-7-5p or miR-NC for 4 days, at which time cell viability was measured (7 days after transfection).
(§6) Statistical significance was calculated using Student's t test (one-tailed, unpaired) and the level of significance was set at p<0.05. Drug sensitivity (IC50) was calculated using GraphPad Software (GraphPad Prism, version 5.04). The Bliss additivism model was used for synergy analysis. […] Here, Ebliss is the fractional inhibition expected if the combination of miR-7-5p and drug B was exactly additive. If the experimentally measured fractional inhibition is greater than Ebliss, the combination is synergistic.

[3] = tested on: A2058 melanoma cells; experiment: as above; settings: for EObs/EBliss: >1 = synergistic; for EBliss: fractional inhibition expected if exactly additive; for EObs: observed fractional inhibition of the combination; for cell viability, combination of miR-7-5p and drug compared to miR-NC: miR-7-5p 5 nM, suboptimal dose of drug (below the IC50) added 3 days post-transfection, 4 further days; for synergy of combination with miR-7-5p (Bliss additivism model): observed fractional inhibition greater than calculated additive inhibition
Protocol: as §5, §6

[4] = tested on: breast cancer cell line MCF-7; experiment: Drug sensitivity assay (cell viability after 4 days of drug); format: cell-based; settings: MCF-7 (positive control)
[5] = tested on: Akt; experiment: IGF-1-induced activation of Akt signaling under NVP-AEW541 (data not shown); format: cell-based
[6] = tested on: ERK 1/2; experiment: IGF-1-induced activation of ERK 1/2 signaling under NVP-AEW541 (data not shown); format: cell-based
[7] = tested on: WM266-4 melanoma cells; experiment: Cell viability assay (MTS) after miRNA transfection, with or without drug; Bliss synergy analysis
Protocol: as §5, §6

[8] = tested on: MM96L melanoma cells; experiment: as above
Protocol: as §5, §6

[9] = tested on: 1205Lu melanoma cells; experiment: xCELLigence real-time cell migration assay; format: cell-based; settings: further study, 20-25 hour period
Description: (§1) Cell migration and invasion was monitored with a Real-Time Cell Analyser dual-plate (RTCA DP) xCELLigence System (Roche Applied Science; Mannheim, Germany). This instrument employs cellular migration plates (CIM-plate 16) which contain microelectronic sensors on the underside of an 8 μm microporous polyethylene terephthalate (PET) membrane of a Boyden-like upper chamber and a lower chamber containing media or chemoattractant. As cells migrate or invade from the upper chamber to the lower chamber they interact with the sensors causing an increase in electrical impedance. Changes in cell impedance over time relates to a change in the number of cells interacting with the sensors, allowing real-time measurement of cell migration as a cell index value. […] After 48 h incubation cells were trypsinised, resuspended in serum free media and seeded into the upper chamber of CIM-plates. The lower chambers were filled with media containing 10% FBS (chemoattractant) or serum free media as a control. Migration was monitored over a 24 hour period with impedance measurements every 15 min. For invasion assays, the CIM-plates were coated with Matrigel (BD Biosciences; diluted at a ratio of 1:20 in serum free medium) approximately 4 hours prior to seeding cells.

[10] = tested on: A2058 melanoma cells; experiment: xCELLigence real-time cell migration assay; format: cell-based
Description: as §1

[11] = tested on: A375 melanoma cells; experiment: xCELLigence real-time cell migration assay; format: cell-based; settings: further study, 20-25 hour period
Description: as §1

[12] = tested on: WM266-4 melanoma cells; experiment: xCELLigence real-time cell migration assay; format: cell-based
Description: as §1

[13] = tested on: 1205Lu melanoma cells; experiment: xCELLigence real-time cell invasion assay (Matrigel); format: cell-based; settings: further study, 20-25 hour period
Description: as §1

[14] = tested on: A2058 melanoma cells; experiment: as above; format: cell-based; settings: further study, 20-25 hour period
Description: as §1

[15] = tested on: A375 melanoma cells; experiment: as above; format: cell-based; settings: further study, 20-25 hour period
Description: as §1

[16] = tested on: WM266-4 melanoma cells; experiment: as above; format: cell-based; settings: further study, 20-25 hour period
Description: as §1

[17] = tested on: FAK; experiment: Immunoblotting after transfection of melanoma cells; format: cell-based; settings: WM266-4 and A2058; 30 nM, protein harvested at time of migration assay (48 hours)
Protocol: (§2) Optimal cell numbers were transfected using Lipofectamine 2000 (Invitrogen) with miR-7-5p (SEQ ID NO: 1; synthesised by Ambion) or miR-NC precursor molecules (hereinafter “miR-NC”; Ambion AM17110) at final concentrations ranging from 1-30 nM. For siRNA transfections, Silencer Select siRNAs (Invitrogen) Negative Control No. 1 (si-NC; 4390843), si-IRS-2 #1 (s16486), si-IRS-2 #2 (s16487) were transfected using Lipofectamine 2000 (Invitrogen) according to the manufacturer's protocol. Cells were harvested 24 hours later for RNA or 2-3 days after transfection for protein extraction.
(§3) Protein was harvested with Cytoplasmic Extract Buffer (CEB)-containing PhosSTOP phosphatase inhibitors (Roche; New South Wales, Australia) and Complete EDTA-free protease inhibitors (Roche). Cell lysates were frozen at −80° C. overnight, cleared by centrifugation at 13,000×g for 5 min, and supernatants collected. Total protein concentrations were determined by Bio-Rad protein assay (Bio-Rad; New South Wales, Australia) as per manufacturer's instructions and using a FLUOstar OPTIMA microplate reader.
(§4) Fifteen μg of total protein samples were resolved on NuPAGE NO VEX 4-12% Bis-Tris gels (Invitrogen) and transferred to polyvinylidene fluoride (PVDF) western blotting membranes (Roche). The blots were blocked for 1 hour with Odyssey Blocking Buffer (Millennium Science, Victoria, Australia) and incubated overnight at 4° C. with anti-IGF1R, anti-phospho-IGF1R, anti-IRS-1, anti-IRS-2, anti-phospo-IRS-2, anti-ERK 1/2, anti-phospho-ERK 1/2, anti-Akt, anti-phospho-Akt (Ser-473), anti-PAK1 (all from Cell Signaling Technology, Beverly, Mass.), or anti-FAK (Santa Cruz Biotechnology), anti-phospho-IRS-2 (Ser-731; Abeam, Cambridge, Mass.), or anti-β-actin (Abcam), followed by incubation with infrared-conjugated secondary antibodies for 1 hour at room temperature. The membranes were scanned with an Odyssey SA scanner to visualize protein expression (LICOR Biosciences, Lincoln, Nebr.).

[18] = tested on: IGF1R; experiment: as above; format: cell-based; settings: melanoma cell lines; 15 nM, 3 days post-transfection, vs miR-NC
Protocol: as §2, §3, §4

[19] = tested on: IRS-1; experiment: as above; format: cell-based; settings: 15 nM, 3 days post-transfection
Protocol: as §2, §3, §4

[20] = tested on: IRS-2; experiment: as above; format: cell-based
Protocol: as §2, §3, §4

[21] = tested on: P-Akt; experiment: as above; format: cell-based; settings: SK-MEL-28, WM266-4 and MM96L; 15 nM, 3 days post-transfection
Protocol: as §2, §3, §4

[22] = tested on: P-ERK 1/2; experiment: as above; format: cell-based; settings: A2058; 15 nM, 3 days post-transfection
Protocol: as §2, §3, §4

[23] = tested on: P-IGF1R; experiment: as above; format: cell-based; settings: 15 nM, 3 days post-transfection
Protocol: as §2, §3, §4

[24] = tested on: P-IRS-2; experiment: as above; format: cell-based
Protocol: as §2, §3, §4

[25] = tested on: PAK1; experiment: as above; format: cell-based
Protocol: as §2, §3, §4

[26] = tested on: IRS-2 mRNA; experiment: RT-qPCR of IRS-2 mRNA after transfection; format: cell-based; settings: WM266-4 and A2058; 24 hours after transfection, normalised to GAPDH, vs miR-NC
Protocol: as §2

[27] = tested on: melanoma cell lines; experiment: Cell viability assay (MTS) after miRNA transfection; format: cell-based; settings: melanoma cells
Protocol: Cells were seeded in 96-well plates at a density of 2.5×10^3 cells per well and transfected with miRNA precursor molecules as above. Cell viability was measured 5 days after transfection using CellTitre 96 Aqueous One Solution Cell Proliferation Assay Kit (MTS assay) and a FLUOstar OPTIMA microplate reader.

[28] = [miR-7-5p] 5 nM + [drug] 100 nM
[29] = [miR-7-5p] 5 nM + [drug] 5 μM, >1 = synergistic
[30] = [miR-7-5p] 5 nM + [drug] 5 μM, fractional inhibition expected if exactly additive
[31] = [miR-7-5p] 5 nM + [drug] 5 μM, observed fractional inhibition of the combination
[32] = further study, 20-25 hour period
[33] = WM266-4 and A2058, 30 nM, protein harvested at time of migration assay (48 hours)
[34] = WM266-4 and A2058, 72 hours after transfection, vs miR-NC
[35] = MTS assay 5 days post-transfection

Compound: COc1cc([C@@H]2c3cc4c(cc3[C@H](O)[C@H]3COC(=O)[C@@H]23)OCO4)cc(OC)c1OC [PPP, picropodophyllin]
- IC50 ([1]; 96 h): 0.15 to 0.3 µM
- EObs/EBliss [2, 28]: 1.80 and 1.30
- EBliss [2, 28]: 0.292 and 0.391
- EObs [2, 28]: 0.526 and 0.508
- EObs/EBliss [3, 28]: 1.48 and 1.03 and 1.18
- EBliss [3, 28]: 0.447 and 0.684 and 0.420
- EObs [3, 28]: 0.663 and 0.704 and 0.496
- cell viability, combination of miR-7-5p and drug compared to miR-NC [3]: significant reduction
- synergy of combination with miR-7-5p (Bliss additivism model) [3]: synergistic

Compound: Nc1ncnc2c1c(-c1cccc(OCc3ccccc3)c1)cn2C1CC(CN2CCC2)C1 (stereo not shown) [NVP-AEW541]
- IC50 [4]: 1.5 µM
- IC50 [1]: 8.27 to 25.1 µM
- IGF-1-induced activation of Akt signaling pathway ([5]; MCF-7 breast cancer cells): attenuated
- Akt activity (IGF-1-induced) ([5]; melanoma cell lines): abrogated
- IGF-1-induced activation of ERK 1/2 signaling pathway ([6]; MCF-7 breast cancer cells): attenuated
- ERK 1/2 activity (IGF-1-induced) ([6]; melanoma cell lines): persistence of ERK 1/2 activity
- EObs/EBliss ([2]; [miR-7-5p] 5 nM + [drug] 5 μM): 1.24 and 1.17
- EBliss ([2]; [miR-7-5p] 5 nM + [drug] 5 μM): 0.474 and 0.265
- EObs ([2]; [miR-7-5p] 5 nM + [drug] 5 μM): 0.588 and 0.309
- EObs/EBliss [7, 29]: 1.06
- EBliss [7, 30]: 0.715
- EObs [7, 31]: 0.757
- EObs/EBliss [8, 29]: 1.06
- EBliss [8, 30]: 0.515
- EObs [8, 31]: 0.547
- EObs/EBliss ([3]; [miR-7-5p] 5 nM + [drug] 5 μM): 1.10 and 1.20
- EBliss ([3]; [miR-7-5p] 5 nM + [drug] 5 μM): 0.769 and 0.720
- EObs ([3]; [miR-7-5p] 5 nM + [drug] 5 μM): 0.846 and 0.866
- cell viability, combination of miR-7-5p and drug compared to miR-NC [3]: significant reduction
- synergy of combination with miR-7-5p (Bliss additivism model) [3]: synergistic

Compound: miR-7-5p: Synthetic miRNA precursor molecules corresponding to human miR-7-5p (Ambion, PM10047); SEQ ID NO: 1 (UGGAAGACUAGUGAUUUUGUUGU; synthetic precursor duplex form, further chemistry not given here; listed as Homo sapiens)
- rate of cell migration compared with miR-NC [9]: significantly reduced, or even blocked
- cell migration compared with miR-NC ([10]; 30 nM, seeded 48 hours after transfection, monitored 24 hours): significantly inhibited
- rate of cell migration compared with miR-NC [10, 32]: significantly reduced, or even blocked
- rate of cell migration compared with miR-NC [11]: significantly reduced, or even blocked
- cell migration compared with miR-NC ([12]; 30 nM, seeded 48 hours after transfection, monitored 24 hours, data not shown): significantly inhibited
- rate of cell migration compared with miR-NC [12, 32]: significantly reduced, or even blocked
- rate of cell invasion compared with miR-NC [13]: significantly reduced, or even blocked
- rate of cell invasion compared with miR-NC [14]: significantly reduced, or even blocked
- rate of cell invasion compared with miR-NC [15]: significantly reduced, or even blocked
- rate of cell invasion compared with miR-NC [16]: significantly reduced, or even blocked
- FAK expression [17]: reduction
- IGF1R expression [18]: No change
- IRS-1 expression ([19]; A2058): decrease
- IRS-1 expression ([19]; SK-MEL-28 and WM266-4): modest increase
- IRS-2 expression ([20]; A2058, 15 nM, 3 days post-transfection): reduced
- IRS-2 expression [20, 33]: reduction
- expression of IRS-2 protein [20, 34]: reduced
- P-Akt [21]: downregulated
- P-ERK 1/2 [22]: downregulated
- IGF1R phosphorylation ([23]; A2058): decreased
- IGF1R phosphorylation ([23]; MM96L): increased
- IGF1R phosphorylation ([23]; SK-MEL-28): did not change
- IRS-2 phosphorylation ([24]; SK-MEL-28, 15 nM, 3 days post-transfection): reduced
- active form of IRS-2 (P-IRS-2) [24, 34]: reduced
- protein level of PAK1 ([25]; SK-MEL-28, WM266-4, MM96L and A2058, 15 nM, 3 days post-transfection, vs miR-NC): reductions
- PAK1 expression [25, 33]: reduction
- levels of IRS-2 mRNA [26]: significantly decreased
- final miR-7-5p concentration at which viability was significantly reduced [27]: 1 nM
- cell viability compared with miR-NC ([2]; MTS assay, data not shown): significantly reduced
- cell viability compared with miR-NC ([7]; MTS assay, data not shown): significantly reduced
- cell viability compared with miR-NC [8, 35]: significantly reduced
- cell viability compared with miR-NC [3, 35]: significantly reduced
